What was measured:
[1] = tested on: human breast cancer MCF-7 cells; test: MTT/CCK8 cell proliferation analysis; type: cell-based
Experimental: (§1) MCF-7 and OVCAR-3 cells were taken out from liquid nitrogen, thawed in a water bath at 37° C., and centrifuged at 1000 rpm for 5 min, the supernatant was removed, 1 ml of DMEM medium with 10% fetal bovine serum was added to MCF-7 cells, the cell suspension was transferred into a 25 cm2 cells culture flask, and a medium with 10% fetal bovine serum was added for culture.
(§2) Well-growing human breast cancer MCF-7 cells, human breast cancer stem cell-like cell MCF-7 MS cells, human ovarian cancer OVCAR-3 cells, human ovarian cancer stem cell-like cell OVCAR-3 cells were taken, digested, resuspended, and inoculated in a 96-well plate with the number of cells per well being 5×10^3; after 24 hours of culture, different concentrations of ComA, ComA combined with PTX, or ComA combined with DDP were administrated for treating the cells for 48 hours, with 3 replicate wells for each concentration; 5 mg/ml of MTT/cck8 was added for treatment for 2 h, followed by shaking for 10 min in a shaker; the absorbance at 570 nm (for measuring MTT)/450 nm (for measuring CCK8) was measured with a microplate reader, the inhibition rate was calculated according to the formula: inhibition rate %=[1−(dosing well-zero adjustment well)/(control well-zero adjustment well)]*100%; IC50 was calculated with SPSS16.0 software, and the experiment was repeated three times.

[2] = tested on: human ovarian cancer OVCAR-3 cells; test: MTT/CCK8 cell proliferation analysis; type: cell-based; details: MTT/cck8, FIG. 5
Experimental: as §1, §2

[3] = tested on: human breast cancer stem cell-like MCF-7 MS cells; test: MTT/CCK8 cell proliferation analysis; type: cell-based
Experimental: (§3) When MCF-7 or OVCAR-3 cells grew to 70%-80%, the medium was discarded, PBS was added for washing 3 times, and trypsin was added for digestion for 1 min; the DMEM medium containing 10% fetal calf serum was added to stop the digestion, centrifuged at 1000 rpm for 5 min, the supernatant was discarded, PBS was added to resuspend cells, centrifuged at 1000 rpm for 5 min, the supernatant was discarded, 2 ml DMEM-F12 conditioned medium was added to resuspend cells, and the cells were cultured in suspension at 37° C., 5% CO2 in a constant-humidity environment.
as §2

[4] = tested on: human ovarian cancer stem cell-like OVCAR-3 MS cells; test: MTT/CCK8 cell proliferation analysis; type: cell-based
Experimental: as §3, §2

HIF-2α = target: T1, HIF-2α (Homo sapiens, UniProt Q99814); test: Western blot analysis of HIF-2α expression in MCF-7 MS cells; type: cell-based; details: 48 h, FIG. 8
T1 construct: endogenous in cells; host or cells: MCF-7 MS (mammosphere / stem cell-like cells induced from human breast cancer MCF-7)
T1 sequence (Q99814 whole entry): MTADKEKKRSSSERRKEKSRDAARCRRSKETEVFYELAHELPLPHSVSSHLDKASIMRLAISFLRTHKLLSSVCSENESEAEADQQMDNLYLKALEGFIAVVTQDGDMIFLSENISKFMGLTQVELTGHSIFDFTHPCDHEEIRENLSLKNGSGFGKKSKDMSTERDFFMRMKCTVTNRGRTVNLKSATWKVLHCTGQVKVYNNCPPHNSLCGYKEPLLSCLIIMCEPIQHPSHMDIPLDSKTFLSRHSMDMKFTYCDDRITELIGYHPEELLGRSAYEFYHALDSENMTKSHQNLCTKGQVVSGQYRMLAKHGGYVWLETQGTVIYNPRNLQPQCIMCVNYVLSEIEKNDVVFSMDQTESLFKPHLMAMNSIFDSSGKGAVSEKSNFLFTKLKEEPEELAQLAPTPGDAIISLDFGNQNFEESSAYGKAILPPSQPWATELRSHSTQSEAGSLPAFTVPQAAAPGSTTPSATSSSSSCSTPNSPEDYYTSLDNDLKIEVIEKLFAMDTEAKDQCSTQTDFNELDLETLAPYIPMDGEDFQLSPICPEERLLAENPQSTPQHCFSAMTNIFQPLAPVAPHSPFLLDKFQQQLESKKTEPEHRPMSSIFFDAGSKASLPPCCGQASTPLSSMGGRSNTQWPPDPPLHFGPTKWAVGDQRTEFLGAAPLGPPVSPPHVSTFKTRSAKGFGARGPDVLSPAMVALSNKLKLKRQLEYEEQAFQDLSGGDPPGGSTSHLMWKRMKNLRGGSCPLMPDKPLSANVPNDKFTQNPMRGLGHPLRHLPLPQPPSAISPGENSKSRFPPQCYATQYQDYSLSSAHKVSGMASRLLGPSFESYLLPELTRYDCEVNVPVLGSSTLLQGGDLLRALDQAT
Experimental: (§4) The human breast cancer stem cell-like MCF7 MS cells were divided into control (Ctrl) group, PTX alone treatment group, ComA alone treatment group, and ComA combined with PTX treatment group, treated for 48 h, and then collected; the cells were washed twice with pre-cooled 1×PBS, and PBS was discarded; 100-200 μl RIPA cell lysis solution (RIPA cell lysis solution:Protease inhibitor cocktail=250:1) was added according to the amount of cells; the mixture was transferred to an EP tube for lysis on ice for 40-60 min, and centrifuged at 4° C. at 12000 rpm/min for 15 minutes; and the supernatant was taken and stored at −80° C. for later use.
(§5) Protein standard curve was prepared (in a 96-well plate), with the configuration system and absorbance shown in the table below, wherein the protein solution was placed at 37° C. and shaken for 30 min, the OD value was measured at 570 nm wavelength, and the protein standard curve was drawn: the abscissa being the standard protein content, and the ordinate being the absorbance value (OD value) under the 570 nm wavelength, thereby drawing a standard curve.
(§6) The samples were treated with 6× protein loading buffer. According to the quantified protein concentration, 30 μl:50 μg protein sample per well was loaded, the well was filled with PBS up to 30 μl when the sample was insufficient, and the samples were denatured in a metal bath at 100° C. for 10 min. […]

HIF-1α = test: Western blot analysis of HIF-1α expression in MCF-7 MS cells; type: cell-based, human; details: 48 h, FIG. 8
Experimental: as §4, §5, §6

Q: For `Cc1ccn2c(=O)cc(CN(Cc3ccccc3)Cc3ccco3)nc2c1` [ComA], which “inhibitory activity on proliferation” value ([1]; MCF-7 cells, MTT/cck8, FIG. 4) is on record?
A: The value was “obvious inhibitory activity”.

Q: And the “time dependence of anti-tumor cell and anti-tumor stem cell activity” value ([1]; stated for tumor cells and tumor stem cells together)?
A: The value was “obviously time-dependent”.

Q: What about the “inhibitory activity on proliferation” value [2] of the same molecule?
A: The value was “obvious inhibitory activity”.

Q: What about the “enhancement of the inhibitory effect of paclitaxel (PTX)” value ([3]; ComA combined with PTX, 48 hours, FIG. 6) of the same molecule?
A: The value was “can enhance the inhibitory effect”.

Q: What about the “inhibitory activity on proliferation” value ([3]; MTT/cck8, FIG. 4) of the same molecule?
A: The value was “obvious inhibitory activity”.

Q: What about the “enhancement of the inhibitory effect of cisplatin (DDP)” value ([4]; ComA combined with DDP, 48 hours, FIG. 7) of the same molecule?
A: The value was “can enhance the inhibitory effect”.

Q: And the “inhibitory activity on proliferation” value ([4]; MTT/cck8, FIG. 5)?
A: Its value is “obvious inhibitory activity”.

Q: And the “expression of HIF-2α” value (HIF-2α; ComA alone)?
A: Its value is “obviously inhibited the expression of HIF-2α”.

Q: What about the “expression of HIF-2α” value (HIF-2α; ComA combined with PTX) of the same molecule?
A: The value was “obviously inhibited the expression of HIF-2α”.

Q: And the “expression of HIF-1α” value (HIF-1α)?
A: Its value is “no obvious inhibitory effect”.
